# Measured values: patent US20200354348A1, “SEMISYNTHETIC AURONES AND METHODS OF USE THEREOF” (University of Kentucky Research Foundation, priority 2018, published 2020)
row,SMILES,melting point [°C]
1,"CCn1cc(/C=C2\Oc3cc(O)ccc3C2=O)c2cc(OC)ccc21 [Aurone 3l, (2Z)-2-[(1-Ethyl-5-methoxy-1H-indol-3-yl)methylene]-6-hydroxy-1-benzofuran-3(2H)-one]",265 to 267
2,"CCn1cc(/C=C2\Oc3cc(O)ccc3C2=O)c2ccccc21 [Aurone 3m, (2Z)-2-[(1-Ethyl-1H-indol-3-yl)methylene]-6-hydroxy-1-benzofuran-3(2H)-one]",278 to 280
3,"Cn1cc(/C=C2\Oc3cc(OCc4c(F)cccc4Cl)ccc3C2=O)c2ccccc21 [Aurone 4h, (2Z)-6-[(2-Chloro-6-fluorobenzyl)oxy]-2-[(1-methyl-1H-indol-3-yl)methylene]-1-benzofuran-3(2H)-one]",225 to 227
4,"Cc1c(OCc2c(Cl)cccc2Cl)ccc2c1O/C(=C\c1cn(C)c3ccccc13)C2=O [Aurone 4i, (2Z)-6-[(2,6-Dichlorobenzyl)oxy]-7-methyl-2-[(1-methyl-1H-indol-3-yl)methylene]-1-benzofuran-3(2H)-one]",232 to 234
5,"COc1ccc2c(c1)c(/C=C1\Oc3cc(OCc4c(F)cccc4Cl)ccc3C1=O)cn2C [Aurone 4k, (2Z)-6-[(2-Chloro-6-fluorobenzyl)oxy]-2-[(5-methoxy-1-methyl-1H-indol-3-yl)methylene]-1-benzofuran-3(2H)-one]",200 to 202
6,"COc1ccc2c(c1)c(/C=C1\Oc3cc(OCc4c(Cl)cccc4Cl)ccc3C1=O)cn2C [Aurone 4l, (2Z)-6-[(2,6-Dichlorobenzyl)oxy]-2-[(5-methoxy-1-methyl-1H-indol-3-yl)methylene]-1-benzofuran-3(2H)-one]",233 to 235
7,"CCn1cc(/C=C2\Oc3cc(OCc4c(Cl)cccc4Cl)ccc3C2=O)c2cc(OC)ccc21 [Aurone 4o, (2Z)-6-[(2,6-Dichlorobenzyl)oxy]-2-[(1-ethyl-5-methoxy-1H-indol-3-yl)methylene]-1-benzofuran-3(2H)-one]",211 to 213
8,"CN(C)c1ccc(/C=C2\Oc3cc(OCc4ccccc4Cl)ccc3C2=O)c(Cl)c1 [Aurone 4s, (2Z)-6-[(2-Chlorobenzyl)oxy]-2-[2-chloro-4-(dimethylamino)benzylidene]-1-benzofuran-3(2H)-one]",> 220
9,"CCN(CC)c1ccc(/C=C2\Oc3cc(OCc4cc(F)ccc4F)ccc3C2=O)c(OC)c1 [Aurone 4t, (2Z)-6-[(2,5-Difluorobenzyl)oxy]-2-[4-(diethylamino)-2-methoxybenzylidene]-1-benzofuran-3(2H)-one]",184 to 186

# The next lines start with the values.
row,melting point [°C],SMILES
1,272 to 274,"Cn1cc(/C=C2\Oc3cc(O)ccc3C2=O)c2ccccc21 [Aurone 3j, (2Z)-6-Hydroxy-2-[(1-methyl-1H-indol-3-yl)methylene]-1-benzofuran-3(2H)-one]"
2,301 to 303,"COc1ccc2c(c1)c(/C=C1\Oc3cc(O)ccc3C1=O)cn2C [Aurone 3k, (2Z)-6-Hydroxy-2-[(5-methoxy-1-methyl-1H-indol-3-yl)methylene]-1-benzofuran-3(2H)-one]"
3,293 to 295,"Cc1c(O)ccc2c1O/C(=C\c1cn(C)c3ccccc13)C2=O [Aurone 3n, (2Z)-6-Hydroxy-7-methyl-2-[(1-methyl-1H-indol-3-yl)methylene]-1-benzofuran-3(2H)-one]"
4,297 to 299,"COc1ccc2c(c1)c(/C=C1\Oc3c(ccc(O)c3C)C1=O)cn2C [Aurone 3o, (2Z)-6-Hydroxy-2-[(5-methoxy-1-methyl-1H-indol-3-yl)methylene]-7-methyl-1-benzofuran-3(2H)-one]"
5,241 to 243,"Cn1cc(/C=C2\Oc3cc(OCc4ccccc4F)ccc3C2=O)c2ccccc21 [Aurone 4d, (2Z)-6-[(2-Fluorobenzyl)oxy]-2-[(1-methyl-1H-indol-3-yl)methylene]-1-benzofuran-3(2H)-one]"
6,206 to 208,"Cn1cc(/C=C2\Oc3cc(OCc4ccccc4Cl)ccc3C2=O)c2ccccc21 [Aurone 4e, (2Z)-6-[(2-Chlorobenzyl)oxy]-2-[(1-methyl-1H-indol-3-yl)methylene]-1-benzofuran-3(2H)-one]"
7,> 220,"Cn1cc(/C=C2\Oc3cc(OCc4c(F)cccc4F)ccc3C2=O)c2ccccc21 [Aurone 4f, (2Z)-6-[(2,6-Difluorobenzyl)oxy]-2-[(1-methyl-1H-indol-3-yl)methylene]-1-benzofuran-3(2H)-one]"
8,247 to 249,"Cn1cc(/C=C2\Oc3cc(OCc4c(Cl)cccc4Cl)ccc3C2=O)c2ccccc21 [Aurone 4g, (2Z)-6-[(2,6-Dichlorobenzyl)oxy]-2-[(1-methyl-1H-indol-3-yl)methylene]-1-benzofuran-3(2H)-one]"
9,184 to 186,"COc1ccc2c(c1)c(/C=C1\Oc3cc(OCc4ccc(F)cc4Cl)ccc3C1=O)cn2C [Aurone 4j, (2Z)-6-[(2-Chloro-4-fluorobenzyl)oxy]-2-[(5-methoxy-1-methyl-1H-indol-3-yl)methylene]-1-benzofuran-3(2H)-one]"
10,241 to 243,"COc1ccc2c(c1)c(/C=C1\Oc3c(ccc(OCc4c(Cl)cccc4Cl)c3C)C1=O)cn2C [Aurone 4m, (2Z)-6-[(2,6-Dichlorobenzyl)oxy]-2-[(5-methoxy-1-methyl-1H-indol-3-yl)methylene]-7-methyl-1-benzofuran-3(2H)-one]"
11,198 to 200,"CCn1cc(/C=C2\Oc3cc(OCc4c(F)cccc4Cl)ccc3C2=O)c2ccccc21 [Aurone 4p, (2Z)-6-[(2-Chloro-6-fluorobenzyl)oxy]-2-[(1-ethyl-1H-indol-3-yl)methylene]-1-benzofuran-3(2H)-one]"
12,213 to 215,"CCn1cc(/C=C2\Oc3cc(OCc4c(Cl)cccc4Cl)ccc3C2=O)c2ccccc21 [Aurone 4q, (2Z)-6-[(2,6-Dichlorobenzyl)oxy]-2-[(1-ethyl-1H-indol-3-yl)methylene]-1-benzofuran-3(2H)-one]"
